Measured values taken from patent US20130224110A1, “USE OF ADENOSINE RECEPTOR SIGNALING TO MODULATE PERMEABILITY OF BLOOD-BRAIN BARRIER” (CORNELL UNIVERSITY, priority 2010, published 2013).

Experiments:
blood brain barrier [1] = experiment: Fluorescently labeled dextran extravasation into mouse brain (fluorimetry); type: in vivo, mice
Protocol: (§1) The adenosine receptor agonists NECA, CCPA, CGS 21860, and SCH 58261 (Tocris, Ellisville, Mo.) were each dissolved in DMSO then diluted in PBS to the desired concentration; in most cases final DMSO concentrations were <0.5% (vol/vol). Lexiscan (Regadenoson; TRC, Inc., Toronto) was dissolved in PBS. For vehicle controls, DMSO was diluted in PBS to the same concentration. Dehydrated dextrans labeled with either FITC or Texas Red (Invitrogen, Carlsbad, Calif.) were re-suspended in PBS to 10 mg/ml. All experiments involving dextran injection used 1.0 mg dextran in PBS. In experiments where drug and dextran were injected concomitantly, 1.0 mg of dextran was mixed with the drug to the desired concentration in a final volume of 200 μl. In dose-response experiments, drugs and dextrans were injected concomitantly. All injections, except injections of SCH 58261, were retro-orbital i.v. with a 27-gauge needle. In the SCH 58261 experiment, SCH 58261 injections, 1 mg/kg, were intraperitoneal and mice were pre-dosed with this concentration daily for 4 days prior to the day of the experiment. An additional injection was administered at the time of the experiment. Vehicle/drug and dextrans were injected on day 5 and tissues were collected 3 h after vehicle/drug administration. In Lexiscan experiments, Lexiscan was administered i.v. with 3 injections, 5 min apart and tissues were collected at 15 min unless otherwise indicated.
In dose-response experiments and experiments with the A1 AR and A2A AR knock-out mice, drugs and dextrans were injected concomitantly. After 3 h, the mice were anesthetized with ketamine/xylazine and subjected to a nose cone containing isoflurane. They were perfused with 25-50 ml ice-cold PBS through the left ventricle of the heart then decapitated. Their brains were removed, weighed and frozen for later analysis.
(§2) Ice-cold 50 mMTris-Cl (pH 7.6) was added to frozen brains (100 μl per 100 mg brain) and were to thawed on ice. They were homogenized with a dounce homogenizer and centrifuged at […] in a microfuge for 30 min at room temperature (rt). The supernatants were transferred to new tubes and an equal volume absolute methanol was added. The samples were centrifuged again at […] for 30 min at rt. Supernatant (200 μl) was transferred to a Corning costar 96 well black polystyrene assay plate (clear bottom). Additionally, a series of standards containing 0.001-10 pg/ml dextran in 50% Tris-Cl/50% absolute methanol (vol/vol) was added to each plate. Absolute concentrations of dextrans were derived from these standard curves. Fluorimetric analysis was performed on a BioTek (Winooski, Vt.) Synergy 4. FITC-dextran was detected at 488/519 (excitation/emission) and Texas Red-dextran was detected at 592/618.

Bend.3 cells [2] = experiment: Albumin uptake assay; type: cell-based, mouse; conditions: BECs, 1 μM, 30 minutes, vs media and vehicle
Protocol: Bend.3 cells grown on collagen coated coverslips were incubated with albumin-alexafluor 594 (50 mg/ml) (Invitrogen) and either media alone, DMSO vehicle, NECA (1 μM), or Lexiscan (1 μM) for 30 minutes. Albumin uptake was visualized (albumin=red) utilizing the Zeiss Axio Imager M1 fluorescent microscope. Total albumin fluorescence was recorded using Zeiss Axio Vision software, and measured utilizing Image-J software.

Bend.3 cells [3] = experiment: F-actin (phalloidin) staining of endothelial cells; type: cell-based, mouse; conditions: BECs, 1 μM, 3 or 30 min, vs vehicle
Protocol: Bend.3 cells were grown (as described above) on circular cover slips in 24-well plates. Cells were treated for 3 or 30 min with 1 μM CCPA, 1 μM […], DMSO or media alone. Cover slips were washed with PBS, fixed in 4% paraformaldahyde, washed again in PBS and then permeabilized with 0.5% TritonX-100 in PBS. After washing in PBS/1% BSA, cover slips were blocked with 1% BSA then stained with Phallodin-Alexa 568. Cover slips were washed and mounted on slides with ProlongGold containing DAPI (Invitrogen). Images were obtained on an Olympus BX51 fluorescent microscope.

blood brain barrier [4] = experiment: Fluorescently labeled dextran extravasation into rat brain (fluorimetry); type: in vivo; conditions: rats
Protocol: as §1
as §2, with “Additionally, a series of standards containing 0.001-10 pg/ml dextran in 50% Tris-Cl/50% absolute methanol (vol/vol) was added to each plate. Absolute concentrations of dextrans were derived from these standard curves. Fluorimetric analysis was performed on a BioTek (Winooski, Vt.) Synergy 4.” left out

Bend.3 cells [5] = experiment: Tight junction molecule staining (ZO-1, Claudin-5, Occludin); type: cell-based, mouse; conditions: 1 μM, 1 h
Protocol: Bend.3 cells grown on collagen coated coverslips were incubated with DMSO vehicle, NECA (1 μM), or Lexiscan (1 μM) for 1 h. Cells were washed with PBS, fixed with 4% paraformaldehyde, and permeabilized with 0.5% Triton-X in PBS. Cells were blocked with PBS/BSA/goat serum and then stained with antibodies (Invitrogen) against either ZO-1 (1A12), Claudin-5 (34-1600), or Occludin (3F10). Following a wash step, cells were incubated with either goat anti-rabbit IgTexas Red-X or goat anti-mouse IgCy5 (Invitrogen). Cover slips were washed and mounted on slides with ProlongGold containing DAPI. Images were obtained on a Zeiss Axio Imager M1 fluorescent microscope.

Bend.3 cells [6] = experiment: Transendothelial cell electrical resistance (TEER) assay; type: cell-based; conditions: mouse BEC monolayers, 1 μM, vs vehicle or media alone
Protocol: Bend.3 cells were grown in ATCC-formulated DMEM supplemented with 10% FBS on 24-well transwell inserts, 8 μm pore size (BD Falcon, Bedford, Mass.) until a monolayer was established. TEER was assessed using a Voltohmeter (EVOMX, World Precision Instruments, Sarasota, Fla.). Background resistance from un-seeded transwells was subtracted from recorded values to determine absolute TEER values. Change in absolute TEER from T0 for each individual transwell was expressed as percentage change and then averaged for each treatment group.

[7] = mice, single i.v. injection (0.05 mg/kg)

CNC(=O)c1cnn(-c2nc(N)c3ncn([C@@H]4O[C@H](CO)[C@@H](O)[C@H]4O)c3n2)c1 [Lexiscan]
magnitude of increased BBB permeability compared with NECA (blood brain barrier [1]; i.v. administration): much greater than the magnitude of increased permeability after NECA administration
BBB permeability to 10,000 Da dextrans (blood brain barrier [1]; mice, i.v. administration): increase BBB permeability to 10,000 Da dextrans
time by which BBB permeability returned to baseline (blood brain barrier [1]; [7]): ≤ 180 min
time of maximum increased BBB permeability (blood brain barrier [1]; [7]): 30 min
time after which FITC-dextran was detectable in the brain (blood brain barrier [1]; mice, single injection): 5 min
rate of fluorescently-labeled albumin uptake (Bend.3 cells [2]): did not affect the rate of fluorescently-labeled albumin uptake
actinomyosin stress fiber formation (Bend.3 cells [3]): marked induction of actinomycin stress fibers
labeled-dextran levels in brain (blood brain barrier [4]; 3 injections over 15 min): dramatically high levels of labeled-dextran
increase in labeled-dextran, multiple doses compared to single injections (blood brain barrier [4]; 3 injections vs single injection): more than 20 fold
BBB permeability (blood brain barrier [4]; i.v. administration): increased BBB permeability in rats
ZO-1 and claudin-5 expression (Bend.3 cells [5]): discreet alterations in ZO-1 and claudin-5
occludin expression (Bend.3 cells [5]): severely diminished occludin expression
TEER (Bend.3 cells [6]): decreases in TEER
